Reference: patent US20040033524A1, “Beta-adrenoceptor genetic polymorphisms and obesity” (priority 2001, published 2004)

System: individuals with hypertension
Experiment: Blood pressure and heart rate response to metoprolol by β1AR codon 389 / codon 49 genotype
Assay type: in vivo, human
Conditions: for 24 hr SBP response (% change) / 24 hr DBP response (% change) / Daytime DBP response (% change) / Daytime SBP response (% change) / Nighttime DBP response (% change) / Nighttime SBP response (% change): at least 4 weeks
Method: Genetic variation (polymorphisms) in the gene encoding the beta 1-adrenergic receptor (β1AR) contribute to the variability in response to beta-blockers. There are two common, non-synonymous polymorphisms of the P AR gene and they result in either a serine (Ser) or glycine (Gly) at codon 49, and arginine (Arg) or glycine (Gly) at codon 389. The relationship between these polymorphisms and heart rate and blood pressure response to the beta-blocker metoprolol was tested in 28 individuals with hypertension.
Patients were washed out from all their antihypertensive medications for at least 2 weeks. They then underwent baseline testing which included recording of 24-hour ambulatory blood pressure data and treadmill exercise heart rate responses at 10 AM and 2 PM. Patients were started on metoprolol and titrated to a dose that produced a diastolic blood pressure DBP<90 mm Hg, or until they reached the maximum dose (200 mg twice daily). Patients were maintained on this target dose for at least 4 weeks and then underwent repeat studies, as at baseline.
Patients were also divided as responders or non-responders, with non-responders defined as those with a <10% decline in DBP, and compared allele frequencies in these groups.

[1] = Arg389Arg genotype, metoprolol titrated
[2] = Ser49Ser genotype, metoprolol titrated
[3] = codon 49 Gly carriers, metoprolol titrated
[4] = codon 389 Gly carriers, metoprolol titrated

## COCCc1ccc(OCC(O)CNC(C)C)cc1 (stereo not drawn) [metoprolol]
Arg389Arg genotype, metoprolol titrated to DBP<90 mm Hg or max 200 mg twice daily, 24-hour ambulatory BP vs baseline
  24 hr SBP response (% change): −10.5 ± 7.9 % change
[1]
  24 hr DBP response (% change): −12.6 ± 7.4 % change
  Daytime DBP response (% change): −13.6 ± 7.2 % change
  Daytime SBP response (% change): −11.6 ± 8.0 % change
  Nighttime DBP response (% change): −10.6 ± 11.6 % change
  Nighttime SBP response (% change): −7.5 ± 9.5 % change
Arg389 homozygotes compared to carriers of Gly389, not nighttime
  Daytime blood pressure response: significantly greater
[2]
  24 hr DBP response (% change): −10.7 ± 7.8 % change
  24 hr SBP response (% change): −10.1 ± 9.1 % change
  Daytime DBP response (% change): −10.3 ± 8.2 % change
  Daytime SBP response (% change): −10.2 ± 9.3 % change
  Nighttime DBP response (% change): −12.4 ± 9.4 % change
  Nighttime SBP response (% change): −9.3 ± 10.9 % change
Ser49 homozygotes compared to carriers of the Gly49 allele
  change in nighttime blood pressure: significantly greater
[3]
  24 hr DBP response (% change): −3.9 ± 8.9 % change
  24 hr SBP response (% change): −0.6 ± 12.2 % change
  Daytime DBP response (% change): −4.0 ± 10.4 % change
  Daytime SBP response (% change): −1.0 ± 12.8 % change
  Nighttime DBP response (% change): −3.1 ± 9.0 % change
  Nighttime SBP response (% change): +0.6 ± 11.8 % change
[4]
  24 hr DBP response (% change): −4.6 ± 8.3 % change
  Daytime DBP response (% change): −3.5 ± 8.7 % change
  Daytime SBP response (% change): −2.8 ± 12.5 % change
  Nighttime DBP response (% change): −7.3 ± 9.1 % change
  Nighttime SBP response (% change): −3.9 ± 13.9 % change
Codon 389 Gly carriers, metoprolol titrated, ambulatory BP vs baseline
  24 hr SBP response (% change): −3.3 ± 12.6 % change
Treadmill exercise heart rate, relation to β1AR genotype
  heart rate response to beta-blockade: not associated with genotype
